Key:
[1] = target: T1, Bromodomain-containing protein 4 (Homo sapiens, UniProt O60885); test: Inhibition of BRD4 bromodomain-1 (unknown origin) by AlphaScreen assay
[2] = Inhibition of CBP (unknown origin) by AlphaScreen assay; design: species or system Homo sapiens
Homo sapiens [3] = species: Homo sapiens; test: Selectivity ratio of IC50 for BRD4 bromodomain-1 (unknown origin) to IC50 for CBP (unknown origin)
[4] = target: T2, ATPase family AAA domain-containing protein 2 (Homo sapiens) (UniProt Q6PL18); test: Binding affinity to ATAD2 bromodomain (unknown origin) assessed as change in melting temperature at 10 uM by differential scanning fluorimetric analysis
T2 sequence (whole entry): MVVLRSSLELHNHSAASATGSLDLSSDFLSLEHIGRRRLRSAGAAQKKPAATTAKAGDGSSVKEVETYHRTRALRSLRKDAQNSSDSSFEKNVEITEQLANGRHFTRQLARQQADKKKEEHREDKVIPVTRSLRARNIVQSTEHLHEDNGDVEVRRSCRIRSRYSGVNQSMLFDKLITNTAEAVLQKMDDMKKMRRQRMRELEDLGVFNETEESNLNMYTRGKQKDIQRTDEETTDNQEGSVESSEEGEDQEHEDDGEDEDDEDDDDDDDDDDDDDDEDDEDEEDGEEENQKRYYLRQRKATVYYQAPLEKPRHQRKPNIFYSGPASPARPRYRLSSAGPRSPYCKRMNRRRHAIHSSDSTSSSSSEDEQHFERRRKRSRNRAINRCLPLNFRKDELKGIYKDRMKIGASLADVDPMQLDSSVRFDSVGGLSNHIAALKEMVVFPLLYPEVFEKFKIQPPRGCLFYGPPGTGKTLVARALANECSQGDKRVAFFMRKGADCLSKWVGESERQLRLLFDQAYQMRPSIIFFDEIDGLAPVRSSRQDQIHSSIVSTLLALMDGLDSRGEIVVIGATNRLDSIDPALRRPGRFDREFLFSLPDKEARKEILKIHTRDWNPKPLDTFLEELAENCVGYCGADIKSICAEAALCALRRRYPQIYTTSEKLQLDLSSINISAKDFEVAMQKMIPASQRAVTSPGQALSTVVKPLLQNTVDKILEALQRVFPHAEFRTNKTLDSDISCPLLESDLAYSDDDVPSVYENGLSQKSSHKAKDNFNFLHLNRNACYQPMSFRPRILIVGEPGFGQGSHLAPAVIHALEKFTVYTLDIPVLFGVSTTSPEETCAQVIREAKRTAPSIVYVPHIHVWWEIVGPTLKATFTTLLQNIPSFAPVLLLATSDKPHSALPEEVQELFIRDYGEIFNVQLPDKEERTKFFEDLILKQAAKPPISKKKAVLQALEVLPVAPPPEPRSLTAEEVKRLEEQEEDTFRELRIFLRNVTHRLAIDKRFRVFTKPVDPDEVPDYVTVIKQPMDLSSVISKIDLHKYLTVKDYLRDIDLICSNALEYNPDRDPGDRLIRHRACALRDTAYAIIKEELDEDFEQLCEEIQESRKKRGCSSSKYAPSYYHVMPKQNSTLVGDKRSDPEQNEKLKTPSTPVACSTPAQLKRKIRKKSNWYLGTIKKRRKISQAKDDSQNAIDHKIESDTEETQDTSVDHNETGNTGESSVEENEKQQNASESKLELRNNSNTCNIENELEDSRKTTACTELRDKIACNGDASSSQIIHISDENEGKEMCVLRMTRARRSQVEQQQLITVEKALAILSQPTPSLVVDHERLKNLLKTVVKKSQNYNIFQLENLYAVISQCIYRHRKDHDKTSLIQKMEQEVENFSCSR

[5] = target: T3, Bromodomain-containing protein 9 (Homo sapiens) (UniProt Q9H8M2); test: Binding affinity to BRD9 bromodomain (unknown origin) assessed as change in melting temperature at 10 uM by differential scanning fluorimetric analysis
T3 sequence (whole entry): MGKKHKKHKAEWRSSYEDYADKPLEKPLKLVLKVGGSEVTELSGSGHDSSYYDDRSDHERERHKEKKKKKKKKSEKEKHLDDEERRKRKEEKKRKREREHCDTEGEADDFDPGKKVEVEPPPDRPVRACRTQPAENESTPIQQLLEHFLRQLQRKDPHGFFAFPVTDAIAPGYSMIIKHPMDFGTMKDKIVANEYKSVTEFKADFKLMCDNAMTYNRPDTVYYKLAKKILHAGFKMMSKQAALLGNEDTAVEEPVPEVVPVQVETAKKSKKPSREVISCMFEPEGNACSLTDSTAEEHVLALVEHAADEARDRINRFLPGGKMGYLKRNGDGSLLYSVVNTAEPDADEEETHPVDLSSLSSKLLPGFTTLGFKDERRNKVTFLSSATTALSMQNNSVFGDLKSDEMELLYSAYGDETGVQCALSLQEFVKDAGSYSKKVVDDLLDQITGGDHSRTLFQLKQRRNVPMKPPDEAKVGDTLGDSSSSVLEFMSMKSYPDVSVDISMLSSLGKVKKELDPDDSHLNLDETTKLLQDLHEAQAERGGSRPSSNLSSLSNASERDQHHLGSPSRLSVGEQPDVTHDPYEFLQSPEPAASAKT

[6] = target: Transcription initiation factor TFIID subunit 1 (Homo sapiens) (UniProt P21675); test: Binding affinity to TAF1 bromodomain-2 (unknown origin) assessed as change in melting temperature at 10 uM by differential scanning fluorimetric analysis
Sequence of Transcription initiation factor TFIID subunit 1 (Homo sapiens) (P21675 whole entry): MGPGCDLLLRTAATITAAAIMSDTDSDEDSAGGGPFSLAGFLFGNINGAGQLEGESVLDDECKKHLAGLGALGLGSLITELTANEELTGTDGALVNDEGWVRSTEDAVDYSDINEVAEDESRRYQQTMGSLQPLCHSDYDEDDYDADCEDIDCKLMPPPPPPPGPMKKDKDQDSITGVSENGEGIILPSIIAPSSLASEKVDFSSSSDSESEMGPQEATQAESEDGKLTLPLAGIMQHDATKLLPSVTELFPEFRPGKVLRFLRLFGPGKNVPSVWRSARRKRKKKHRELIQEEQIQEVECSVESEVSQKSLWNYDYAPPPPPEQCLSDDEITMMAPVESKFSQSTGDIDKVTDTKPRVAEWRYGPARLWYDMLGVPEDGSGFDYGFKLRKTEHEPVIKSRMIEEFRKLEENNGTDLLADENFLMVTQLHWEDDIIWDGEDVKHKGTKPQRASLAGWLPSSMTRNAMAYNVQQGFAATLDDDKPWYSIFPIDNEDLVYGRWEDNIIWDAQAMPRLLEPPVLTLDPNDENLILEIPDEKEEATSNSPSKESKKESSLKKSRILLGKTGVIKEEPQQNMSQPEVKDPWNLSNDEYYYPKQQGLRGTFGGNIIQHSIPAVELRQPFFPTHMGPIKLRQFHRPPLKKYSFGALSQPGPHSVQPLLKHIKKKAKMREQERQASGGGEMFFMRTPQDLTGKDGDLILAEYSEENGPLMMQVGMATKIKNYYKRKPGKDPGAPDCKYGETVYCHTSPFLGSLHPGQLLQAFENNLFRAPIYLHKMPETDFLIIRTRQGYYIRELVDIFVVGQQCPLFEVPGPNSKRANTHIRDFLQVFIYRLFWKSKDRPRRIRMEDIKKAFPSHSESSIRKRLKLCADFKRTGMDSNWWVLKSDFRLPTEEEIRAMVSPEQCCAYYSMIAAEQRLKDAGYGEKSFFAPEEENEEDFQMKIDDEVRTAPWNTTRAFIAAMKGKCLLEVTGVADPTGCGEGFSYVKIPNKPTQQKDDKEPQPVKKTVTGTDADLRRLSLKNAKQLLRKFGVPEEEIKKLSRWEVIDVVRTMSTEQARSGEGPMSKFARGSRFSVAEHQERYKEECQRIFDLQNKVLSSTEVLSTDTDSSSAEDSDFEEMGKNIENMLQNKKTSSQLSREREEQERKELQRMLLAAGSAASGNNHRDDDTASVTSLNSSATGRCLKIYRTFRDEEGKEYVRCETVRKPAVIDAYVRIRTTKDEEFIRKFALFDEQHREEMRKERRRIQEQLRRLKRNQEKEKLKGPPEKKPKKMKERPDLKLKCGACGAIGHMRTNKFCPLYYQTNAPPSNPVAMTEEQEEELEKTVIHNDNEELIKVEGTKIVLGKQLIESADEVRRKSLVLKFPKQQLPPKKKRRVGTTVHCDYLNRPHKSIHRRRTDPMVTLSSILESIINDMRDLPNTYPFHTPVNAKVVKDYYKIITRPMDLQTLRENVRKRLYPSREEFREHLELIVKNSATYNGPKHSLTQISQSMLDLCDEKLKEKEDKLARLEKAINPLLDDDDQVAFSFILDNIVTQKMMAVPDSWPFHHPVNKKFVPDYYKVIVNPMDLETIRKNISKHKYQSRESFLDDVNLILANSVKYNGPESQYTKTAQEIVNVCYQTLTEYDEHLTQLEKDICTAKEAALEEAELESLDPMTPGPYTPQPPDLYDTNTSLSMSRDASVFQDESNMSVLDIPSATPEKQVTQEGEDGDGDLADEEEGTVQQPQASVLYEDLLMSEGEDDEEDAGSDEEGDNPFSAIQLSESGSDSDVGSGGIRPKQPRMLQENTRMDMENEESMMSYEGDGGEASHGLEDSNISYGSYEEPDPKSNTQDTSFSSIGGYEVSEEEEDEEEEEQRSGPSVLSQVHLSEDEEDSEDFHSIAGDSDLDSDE

[7] = target: PH-interacting protein (Homo sapiens) (UniProt Q8WWQ0); test: Binding affinity to PHIP bromodomain-2 (unknown origin) assessed as change in melting temperature at 10 uM by differential scanning fluorimetric analysis
[8] = target: T1, Bromodomain-containing protein 4; test: Binding affinity to BRD4 bromodomain-2 (unknown origin) assessed as change in melting temperature at 10 uM by differential scanning fluorimetric analysis
[9] = target: Histone acetyltransferase KAT2B (Homo sapiens) (UniProt Q92831); test: Binding affinity to PCAF bromodomain (unknown origin) assessed as change in melting temperature at 10 uM by differential scanning fluorimetric analysis
Sequence of Histone acetyltransferase KAT2B (Homo sapiens) (Q92831 whole entry, looked up): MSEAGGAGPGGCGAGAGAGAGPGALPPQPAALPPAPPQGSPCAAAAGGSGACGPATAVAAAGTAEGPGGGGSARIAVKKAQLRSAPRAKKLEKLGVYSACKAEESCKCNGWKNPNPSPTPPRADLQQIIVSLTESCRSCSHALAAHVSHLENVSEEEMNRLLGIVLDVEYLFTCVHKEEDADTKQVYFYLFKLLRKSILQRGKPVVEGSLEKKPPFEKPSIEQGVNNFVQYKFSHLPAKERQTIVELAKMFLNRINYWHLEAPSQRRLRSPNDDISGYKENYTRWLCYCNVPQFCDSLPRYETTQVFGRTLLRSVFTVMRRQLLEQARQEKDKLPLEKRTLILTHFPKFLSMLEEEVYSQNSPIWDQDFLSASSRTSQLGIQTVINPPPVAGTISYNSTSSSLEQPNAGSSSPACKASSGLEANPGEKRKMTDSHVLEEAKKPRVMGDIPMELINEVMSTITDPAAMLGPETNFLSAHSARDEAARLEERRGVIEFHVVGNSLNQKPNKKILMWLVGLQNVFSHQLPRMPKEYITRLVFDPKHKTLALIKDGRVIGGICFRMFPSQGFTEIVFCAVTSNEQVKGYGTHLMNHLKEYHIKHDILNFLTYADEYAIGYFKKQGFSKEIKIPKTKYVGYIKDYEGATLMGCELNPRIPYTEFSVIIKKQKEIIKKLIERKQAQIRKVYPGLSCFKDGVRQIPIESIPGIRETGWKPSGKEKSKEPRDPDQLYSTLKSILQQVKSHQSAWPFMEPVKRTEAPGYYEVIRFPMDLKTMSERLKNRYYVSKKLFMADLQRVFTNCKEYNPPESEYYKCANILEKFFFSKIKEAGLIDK

[10] = target: Protein polybromo-1 (Homo sapiens) (UniProt Q86U86); test: Binding affinity to PB1-5 bromodomain (unknown origin) assessed as change in melting temperature at 10 uM by differential scanning fluorimetric analysis
Sequence of Protein polybromo-1 (Homo sapiens) (Q86U86 whole entry): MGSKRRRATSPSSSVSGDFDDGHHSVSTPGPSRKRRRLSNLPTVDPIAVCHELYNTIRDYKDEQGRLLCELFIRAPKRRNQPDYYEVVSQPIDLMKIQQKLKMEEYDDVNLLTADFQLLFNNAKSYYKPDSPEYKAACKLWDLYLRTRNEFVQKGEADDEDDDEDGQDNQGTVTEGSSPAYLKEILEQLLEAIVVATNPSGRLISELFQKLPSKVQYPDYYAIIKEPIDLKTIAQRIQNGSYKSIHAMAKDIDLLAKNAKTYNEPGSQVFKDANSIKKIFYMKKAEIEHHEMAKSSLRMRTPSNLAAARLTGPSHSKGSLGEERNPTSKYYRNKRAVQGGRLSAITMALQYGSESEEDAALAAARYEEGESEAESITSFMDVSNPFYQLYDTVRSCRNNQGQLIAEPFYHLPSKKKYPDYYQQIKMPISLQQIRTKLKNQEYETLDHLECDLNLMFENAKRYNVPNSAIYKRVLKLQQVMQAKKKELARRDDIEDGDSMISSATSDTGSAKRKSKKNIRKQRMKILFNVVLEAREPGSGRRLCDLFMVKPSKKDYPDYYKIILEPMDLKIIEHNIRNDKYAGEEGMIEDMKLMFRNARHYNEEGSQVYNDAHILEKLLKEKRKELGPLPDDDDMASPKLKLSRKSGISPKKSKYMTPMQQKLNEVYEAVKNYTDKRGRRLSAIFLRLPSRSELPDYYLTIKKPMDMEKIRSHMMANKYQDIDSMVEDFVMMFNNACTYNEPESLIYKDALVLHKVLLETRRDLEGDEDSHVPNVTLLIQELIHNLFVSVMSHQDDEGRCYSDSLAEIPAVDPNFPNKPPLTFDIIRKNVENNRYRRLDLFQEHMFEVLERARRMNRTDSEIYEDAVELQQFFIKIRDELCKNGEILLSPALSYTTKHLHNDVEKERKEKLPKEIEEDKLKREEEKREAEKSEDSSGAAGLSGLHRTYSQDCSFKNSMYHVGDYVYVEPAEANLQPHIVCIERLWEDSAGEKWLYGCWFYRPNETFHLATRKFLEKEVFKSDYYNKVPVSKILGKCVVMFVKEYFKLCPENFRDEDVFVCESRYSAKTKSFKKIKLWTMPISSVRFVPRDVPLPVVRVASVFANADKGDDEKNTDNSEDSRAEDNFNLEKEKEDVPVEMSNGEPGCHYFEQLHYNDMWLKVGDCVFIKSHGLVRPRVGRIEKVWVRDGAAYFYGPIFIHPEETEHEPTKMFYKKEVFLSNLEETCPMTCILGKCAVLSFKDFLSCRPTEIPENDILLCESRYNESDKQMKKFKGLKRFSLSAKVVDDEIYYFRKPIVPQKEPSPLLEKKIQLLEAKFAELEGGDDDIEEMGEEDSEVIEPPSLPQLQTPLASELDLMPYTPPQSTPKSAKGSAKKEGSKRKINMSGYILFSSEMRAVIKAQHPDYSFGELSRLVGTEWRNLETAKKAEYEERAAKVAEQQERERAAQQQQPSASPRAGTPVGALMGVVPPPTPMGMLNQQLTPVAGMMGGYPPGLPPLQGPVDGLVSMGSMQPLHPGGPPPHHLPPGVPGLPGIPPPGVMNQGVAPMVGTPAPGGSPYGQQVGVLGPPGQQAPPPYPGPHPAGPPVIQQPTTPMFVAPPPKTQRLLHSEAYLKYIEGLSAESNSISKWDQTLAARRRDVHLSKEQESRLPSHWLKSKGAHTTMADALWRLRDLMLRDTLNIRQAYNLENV

Homo sapiens [11] = species: Homo sapiens; test: Binding affinity to CBP (unknown origin) assessed as change in melting temperature at 10 uM by differential scanning fluorimetric analysis
[12] = target: T4, Transcription intermediary factor 1-alpha (Homo sapiens) (UniProt O15164); test: Binding affinity to TIF1alpha bromodomain (unknown origin) assessed as change in melting temperature at 10 uM by differential scanning fluorimetric analysis
T4 sequence (whole entry): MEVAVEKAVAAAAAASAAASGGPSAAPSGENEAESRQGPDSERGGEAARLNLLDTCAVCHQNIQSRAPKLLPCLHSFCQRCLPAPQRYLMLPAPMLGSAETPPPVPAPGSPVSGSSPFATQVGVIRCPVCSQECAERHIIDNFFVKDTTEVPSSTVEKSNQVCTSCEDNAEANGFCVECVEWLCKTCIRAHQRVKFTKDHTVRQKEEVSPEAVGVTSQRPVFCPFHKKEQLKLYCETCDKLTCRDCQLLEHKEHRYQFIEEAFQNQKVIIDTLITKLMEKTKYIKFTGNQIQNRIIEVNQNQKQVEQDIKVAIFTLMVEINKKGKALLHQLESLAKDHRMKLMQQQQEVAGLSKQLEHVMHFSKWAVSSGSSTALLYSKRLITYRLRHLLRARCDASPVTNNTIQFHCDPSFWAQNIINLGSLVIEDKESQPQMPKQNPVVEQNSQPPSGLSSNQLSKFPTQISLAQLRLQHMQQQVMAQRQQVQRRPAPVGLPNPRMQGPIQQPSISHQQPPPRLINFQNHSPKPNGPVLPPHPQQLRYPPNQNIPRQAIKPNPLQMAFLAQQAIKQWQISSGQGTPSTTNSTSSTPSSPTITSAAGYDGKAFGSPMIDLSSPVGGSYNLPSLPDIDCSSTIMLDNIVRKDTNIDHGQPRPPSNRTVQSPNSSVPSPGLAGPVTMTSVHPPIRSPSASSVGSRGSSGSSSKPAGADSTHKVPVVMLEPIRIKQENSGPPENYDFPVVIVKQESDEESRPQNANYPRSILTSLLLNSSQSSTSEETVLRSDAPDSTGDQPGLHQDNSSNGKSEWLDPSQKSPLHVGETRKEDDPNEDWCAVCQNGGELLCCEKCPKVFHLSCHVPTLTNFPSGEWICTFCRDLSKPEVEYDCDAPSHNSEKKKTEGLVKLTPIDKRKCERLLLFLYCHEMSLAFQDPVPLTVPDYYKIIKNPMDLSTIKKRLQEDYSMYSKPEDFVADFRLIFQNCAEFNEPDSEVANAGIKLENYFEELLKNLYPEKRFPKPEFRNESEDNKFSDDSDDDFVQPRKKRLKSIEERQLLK

Cc1noc(C)c1-c1ccc2ncn(Cc3cccc(Br)c3)c2c1
IC50 ([1]; read-out: pIC50 (converted)): 1000 nM | pIC50 [2]: < 5

COc1ccc(Cn2cnc3ccc(-c4c(C)noc4C)cc32)cc1
IC50 ([1]; read-out: pIC50 (converted)): 794 nM | pIC50 [2]: < 5

Cc1noc(C)c1-c1ccc2c(c1)nc(C)n2Cc1ccc(O)cc1
IC50 ([1]; read-out: pIC50 (converted)): 2000 nM | pIC50 [2]: 5.1

Cc1noc(C)c1-c1ccc2ncn(Cc3ccccc3C#N)c2c1
IC50 ([1]; read-out: pIC50 (converted)): 1000 nM | pIC50 [2]: 5.9

Cc1noc(C)c1-c1ccc2c(c1)C(OCc1ccccc1)CC2 (racemic)
IC50 ([1]; read-out: pIC50 (converted)): 31600 nM

Cc1noc(C)c1-c1ccc2c(c1)C(OCCCN1CCNCC1)CC2 (racemic)
IC50 ([1]; read-out: pIC50 (converted)): 3980 nM

Cc1noc(C)c1-c1ccc2ncn(Cc3ccc(C#N)cc3)c2c1
Ratio IC50 (Homo sapiens [3]): 100 | ΔTm [4]: -0.1 °C | ΔTm [5]: 0.1 °C | ΔTm [6]: 0 °C | IC50 ([1]; read-out: IC50): 180 nM | IC50 ([1]; read-out: pIC50 (converted)): 200 nM | ΔTm [7]: -0.4 °C | ΔTm [8]: 3.2 °C | pIC50 [2]: < 4 | ΔTm [9]: -0.2 °C | ΔTm [10]: -0.1 °C | ΔTm (Homo sapiens [11]): 1.1 °C | ΔTm [12]: -0.2 °C

Cc1noc(C)c1-c1ccc2c(c1)ncn2Cc1ccc(Cl)c(Cl)c1
IC50 ([1]; read-out: pIC50 (converted)): 10000 nM | pIC50 [2]: 5.9

Cc1noc(C)c1-c1ccc2ncn(Cc3ccccc3Cl)c2c1
IC50 ([1]; read-out: pIC50 (converted)): 794 nM | pIC50 [2]: < 5

Cc1noc(C)c1-c1ccc2c(c1)C(OCCCN1CCCC1)CC2 (racemic)
IC50 ([1]; read-out: pIC50 (converted)): 6310 nM

Cc1noc(C)c1-c1ccc2c(c1)C(OCc1ccc3ccccc3n1)CC2 (racemic)
IC50 ([1]; read-out: pIC50 (converted)): 20000 nM

Cc1noc(C)c1-c1ccc2c(c1)C(O)(c1ccccc1)CC2 (racemic)
IC50 ([1]; read-out: pIC50 (converted)): 1260 nM | pIC50 [2]: 4.7

Cc1noc(C)c1-c1ccc2ncn(Cc3cccc(F)c3)c2c1
IC50 ([1]; read-out: pIC50 (converted)): 631 nM | pIC50 [2]: 4.9

Cc1noc(C)c1-c1ccc2c(c1)C(=O)CC2
IC50 ([1]; read-out: pIC50 (converted)): 63100 nM | pIC50 [2]: < 4.6

Cc1noc(C)c1-c1ccc2ncn(Cc3cccc(C(=O)N(C)C)c3)c2c1
IC50 ([1]; read-out: pIC50 (converted)): 631 nM | pIC50 [2]: 5.2

Cc1noc(C)c1-c1ccc2ncn(Cc3ccccc3[N+](=O)[O-])c2c1
IC50 ([1]; read-out: pIC50 (converted)): 631 nM | pIC50 [2]: < 4

Cc1noc(C)c1-c1ccc2c(c1)ncn2Cc1ccccc1[N+](=O)[O-]
IC50 ([1]; read-out: pIC50 (converted)): 12600 nM | pIC50 [2]: 4.8

COC(=O)c1ccc(Cn2cnc3ccc(-c4c(C)noc4C)cc32)cc1
IC50 ([1]; read-out: pIC50 (converted)): 1260 nM | pIC50 [2]: < 4

Cc1noc(C)c1-c1ccc2c(c1)C(OCCCN1CCOCC1)CC2 (racemic)
IC50 ([1]; read-out: pIC50 (converted)): 6310 nM

Cc1noc(C)c1-c1ccc2ncn(Cc3cccc(Cl)c3)c2c1
IC50 ([1]; read-out: pIC50 (converted)): 1260 nM | pIC50 [2]: 4.7

Cc1noc(C)c1-c1ccc2nc[nH]c2c1
IC50 ([1]; read-out: pIC50 (converted)): 6310 nM | pIC50 [2]: 5.4

Cc1noc(C)c1-c1ccc2c(c1)ncn2Cc1cccc(Br)c1
IC50 ([1]; read-out: pIC50 (converted)): 1580 nM | pIC50 [2]: 5.6

COc1ccc(Cn2c(C)nc3ccc(-c4c(C)noc4C)cc32)cc1
IC50 ([1]; read-out: pIC50 (converted)): 1580 nM | pIC50 [2]: 4.6

Cc1noc(C)c1-c1ccc2cc[nH]c2c1
IC50 ([1]; read-out: pIC50 (converted)): 20000 nM | pIC50 [2]: < 5

Cc1noc(C)c1-c1ccc2c(c1)ncn2Cc1ccc(Cl)cc1
IC50 ([1]; read-out: pIC50 (converted)): 2510 nM | pIC50 [2]: 5.7

Cc1noc(C)c1-c1ccc2ncn(Cc3ccc(C(=O)N(C)C)cc3)c2c1
IC50 ([1]; read-out: pIC50 (converted)): 2000 nM | pIC50 [2]: 5.2

Cc1noc(C)c1-c1ccc2c(c1)C(OCCCN1CCCCC1)CC2 (racemic)
IC50 ([1]; read-out: pIC50 (converted)): 6310 nM

Cc1noc(C)c1-c1ccc2ncn(Cc3ccc(Cl)c(Cl)c3)c2c1
IC50 ([1]; read-out: pIC50 (converted)): 3980 nM | pIC50 [2]: < 4

Source: ChEMBL document CHEMBL3217564, “The design and synthesis of 5- and 6-isoxazolylbenzimidazoles as selective inhibitors of the BET bromodomains” (Medchemcomm, 2013)
